Results from PubChem BioAssay AID2060351 (Molecular Pharmacology Branch, DTP, NCI, 2025).
Several values for one entry are separate records, joined by “and”; a condition that tells them apart may be missing. Equal entries are not always repeated.

System: 521955-158-R7-J2-PDC spheroids, viability % test/control
Assay: Anticancer human tumor 521955-158-R7-J2-PDC patient-derived pancreatic carcinoma cell line growth inhibition [TAK]
Conditions: spheroids with HUVEC and MSC; for viability, T/C: stronger effect = lower value
Description: Combinatorial screen of targeted agents with TAK-243 and ipatasertib in multi-cell type tumor spheroids
A high-throughput screen of multi-cell type tumor spheroids was designed to identify active combinations of targeted small molecules and TAK-243 or ipatasertib. Complex spheroids include a stromal component modeled by human endothelial cells (HUVEC) and fibroblasts modeled by human mesenchymal stem cells (MSCs). The concentration ranges selected for each drug and investigational agent were based upon clinically achievable concentrations if the clinical Cmax of the agent was known.
Compounds. The drugs and investigational agents: TAK-243 (785004), ipatasertib (767898), everolimus (733504), selumetinib (741078), bortezomib (756655), trametinib (758246), ixazomib (758254), vemurafenib (761431), dabrafenib (764134), sapanisertib (764658), alpelisib (765974), and copanlisib (816437), were obtained from the National Cancer Institute (NCI) Developmental Therapeutics Program Chemical Repository. The FDA-approved anticancer drug set is available from the NCI Developmental Therapeutics Program. […] The stock solutions were prepared in dimethyl sulfoxide (DMSO, Sigma-Aldrich, St. Louis, MO, cat. D2650) at 800-fold the tested concentration and stored at -70 degrees C prior to their use. All drugs and investigational agents were tested over a range starting from a high concentration at or near the clinical Cmax and decreasing in half-log increments. If the clinical Cmax for an agent had not been determined, the highest concentration tested was 10 microM.
NCI60 Cell Culture. NCI60 cell lines were obtained from the NCI Developmental Therapeutics Program Tumor Repository. For each lot of cells, the Repository performed Applied Biosystems AmpFLSTR Identifiler testing with PCR amplification to confirm consistency with the published Identifier STR profile for each cell line. Cells were kept in continuous culture for no more than 20 passages. The optimal seeding densities for each of the cell lines at each time point assessed were determined prior to performing the concentration response studies. Briefly, the NCI60 human tumor lines were grown as monolayers in RPMI 1640 medium supplemented with 10% FBS and 2 mmol/L L-glutamine.
An additional 2 lines were from the NCI60 cell line panel including melanomas, MALME-3M and SK-MEL-2. Pooled donor human umbilical vein endothelial cells (HUVEC, Lonza, cat. CC-2519) and human mesenchymal stem cells (hMSC, Lonza, cat. PT-2501) were purchased from Lonza (Walkersville, MD).
PDMR cell lines were grown in complete medium (DC medium): Dulbecco's modified Eagle's medium (DMEM)/F12 supplemented with 5% fetal bovine serum (FBS), 2 mM L-glutamine, 100 U/mL penicillin and 100 µg/ml streptomycin, 0.4 µg/ml hydrocortisone, 10 ng/ml epidermal growth factor (EGF) recombinant human protein, 24 µg/mL adenine, and 0.1 mg/mL primocin. During culture from frozen stock vials, PDMR cells were cultured in the same medium containing 10 µM Y-27632 (see Table 3). The PDCs were cultured in complete DMEM/F12 media without 10 microM Y-27632 dihydrochloride for at least two passages prior to the screen. The pooled donor HUVEC and hMSC were cultured in endothelial cell growth medium 2 (PromoCell, Heidelberg, Germany, cat. C-22011) and mesenchymal stem cell growth medium 2 (PromoCell, cat. C-28009), respectively. For all experiments, HUVEC and hMSC were used at passages </=5.
For the pre-screen, cell seeding densities were determined from a titration spanning the range from 5,000 to 313 cells per well. The mct-spheroids including 60% malignant cells, 25% HUVEC and 15% MSC dispensed as a mixture into U-bottom Ultra-Low Attachment 384-well plates (Corning, NY)
High-throughput Drug Combination Screening.
Prior to their inoculation into 384-well plates, malignant cells, HUVEC, and hMSC were removed from T flasks using TrypLE express (Thermo Fisher Scientific, cat. 12605036) and harvested by centrifugation for 5 min at 233 x g. […]
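Also: spheroids exposed to compound for 7 days before readout.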

In the case of `CC(=O)Nc1cccc(-n2c(=O)n(C3CC3)c(=O)c3c(Nc4ccc(I)cc4F)n(C)c(=O)c(C)c32)c1` + CC(C)NCC(C(=O)N1CCN(c2ncnc3c2C(C)CC3O)CC1)c1ccc(Cl)cc1, the IC50 (curve of first compound, second compound 0.3 µM) is reported as 1.34 nM, the IC50 (curve of first compound, second compound 0.949 µM) is reported as 1.4 nM and the IC50 (curve of first compound, second compound 3 µM) is reported as 0.802 nM. The IC50 (curve of first compound, second compound 9.49 µM) was 0.763 nM, the IC50 (curve of first compound, second compound 30 µM) was 0.786 nM and the viability, T/C (second compound 0.3 µM, first compound 94.9 pM) was 98.9%. The viability, T/C (second compound 0.3 µM, first compound 0.0003 µM) was 79.8%, the viability, T/C (second compound 0.3 µM, first compound 0.000949 µM) was 51.1% and the viability, T/C (second compound 0.3 µM, first compound 0.003 µM) was 39.4%. It also gave a viability, T/C (second compound 0.3 µM, first compound 0.00949 µM) of 23.8%, a viability, T/C (second compound 0.3 µM, first compound 0.03 µM) of 11.7% and a viability, T/C (second compound 0.949 µM, first compound 94.9 pM) of 106%. It also gave a viability, T/C (second compound 0.949 µM, first compound 0.0003 µM) of 83.6%, a viability, T/C (second compound 0.949 µM, first compound 0.000949 µM) of 50.4% and a viability, T/C (second compound 0.949 µM, first compound 0.003 µM) of 39.7%. It also gave a viability, T/C (second compound 0.949 µM, first compound 0.00949 µM) of 24.9%, a viability, T/C (second compound 0.949 µM, first compound 0.03 µM) of 10.5% and a viability, T/C (second compound 3 µM, first compound 94.9 pM) of 99.6%. For the same compound, the viability, T/C (second compound 3 µM, first compound 0.0003 µM) was 61.7%, the viability, T/C (second compound 3 µM, first compound 0.000949 µM) was 50.2% and the viability, T/C (second compound 3 µM, first compound 0.003 µM) was 31.8%. It also gave a viability, T/C (second compound 3 µM, first compound 0.00949 µM) of 23%, a viability, T/C (second compound 3 µM, first compound 0.03 µM) of 8.8% and a viability, T/C (second compound 9.49 µM, first compound 94.9 pM) of 82.7%. For the same compound, the viability, T/C (second compound 9.49 µM, first compound 0.0003 µM) was 68.7%, the viability, T/C (second compound 9.49 µM, first compound 0.000949 µM) was 40.3% and the viability, T/C (second compound 9.49 µM, first compound 0.003 µM) was 32.1%. For the same compound, the viability, T/C (second compound 9.49 µM, first compound 0.00949 µM) was 25%, the viability, T/C (second compound 9.49 µM, first compound 0.03 µM) was 7.94% and the viability, T/C (second compound 30 µM, first compound 94.9 pM) was 93.1%. For the same compound, the viability, T/C (second compound 30 µM, first compound 0.0003 µM) was 61.4%, the viability, T/C (second compound 30 µM, first compound 0.000949 µM) was 44.3% and the viability, T/C (second compound 30 µM, first compound 0.003 µM) was 35.5%. For the same compound, the viability, T/C (second compound 30 µM, first compound 0.00949 µM) was 20.4% and the viability, T/C (second compound 30 µM, first compound 0.03 µM) was 4.94%.
In the case of `CC(C)n1nc(-c2ccc3oc(N)nc3c2)c2c(N)ncnc21`, the viability, T/C (compound 0.000316 µM) is reported as 78.4% and 94.7%, the viability, T/C (compound 0.001 µM) is reported as 79.4% and 104% and the viability, T/C (compound 0.00316 µM) is reported as 81.2% and 82.3%. The viability, T/C (compound 0.01 µM) was 86.4% and 90.7%, the viability, T/C (compound 0.0316 µM) was 76% and 109% and the viability, T/C (compound 0.1 µM) was 71.2% and 53.7%. It also gave an IC50 (curve of compound) greater than 100 nM.
`CC(C)NCC(C(=O)N1CCN(c2ncnc3c2C(C)CC3O)CC1)c1ccc(Cl)cc1` (centres undefined) was tested, and the viability, T/C (compound 30 µM) was 84.2% [middle of 10 runs] and the IC50 (compound alone, run of 02/20/2020) was greater than 30000 nM.
